The values below come from patent US5541178A, “Carbapenem antibiotic compounds” (Zeneca Limited, priority 1991, dated 1996).

Each structure is given as a SMILES string. Values after ≈ are worked out from the molar mass of the structure shown. Structures can show the parent of a compound that is named as a salt. Where two headings read alike, the source gives them in different places. Some results are limits rather than exact numbers.

What all share (format): cell-based
In assay [1] the test system is Enterobacter cloacae P99-. Put plainly: microbe, parasite or virus in culture. The source says:
(§1) The pharmaceutically acceptable carbapenem compounds of the present invention are useful antibacterial agents having a broad spectrum of activity in vitro against standard laboratory microorganisms, both Gram-negative and Gram-positive, which are used to screen for activity against pathogenic bacteria. The antibacterial spectrum and potency of a particular compound may be determined in a standard test system. In particular the carbapenems of the present invention show good stability to beta-lactamases and in general particularly good pharmacokinetics, especially as regards half life. In general compounds show significant improvement over imipenem.
(§2) The following results were obtained for representative compounds on a standard in vitro test system using Diagnostic Sensitivity Test. The antibacterial activity is described in terms of the minimum inhibitory concentration (MIC) determined by the agar-dilution technique with an inoculum size of 10^4 CFU/spot.

The test system of another assay is B. fragilis AMP-S. Put plainly: MIC by agar-dilution technique, Diagnostic Sensitivity Test. The following applies: Bacteroides fragilis, inoculum 10^4 CFU/spot.
Text: as §1, §2

A further assay concerns D Morganii DR 062. The description is as above.
Text: as §1, §2

Another assay deals with S. aureus Oxford. Described as above. Particulars: Staphylococcus aureus, inoculum 10^4 CFU/spot.
Text: as §1, §2

For a further assay, the system named is B. fragilis AMP-R. The assay is described as above. The following applies: Bacteroides fragilis, inoculum 10^4 CFU/spot.
Text: as §1, §2

A further assay has as its system P. morganii I + 001. Described as above. The following applies: Morganella morganii.
Text: as §1, §2

The test system of assay [2] is Enterobacter cloacae P99+. The assay is described as above.
Text: as §1, §2

In another assay the test system is E. coli DCO. The description is as above. Particulars: Escherichia coli, inoculum 10^4 CFU/spot.
Text: as §1, §2

The mark [3] stands for this setting: D Morganii DR 062, agar-dilution, inoculum 10^4 CFU/spot, read-out: MIC.
Where [4] appears, read: P. morganii I + 001, agar-dilution, inoculum 10^4 CFU/spot, read-out: MIC.

As to `C[C@@H](O)[C@H]1C(=O)N2C(C(=O)O)=C(S[C@@H]3CN[C@H](C(=O)Nc4ccc(C(=O)O)cc4O)C3)[C@H](C)[C@H]12` [Example 1, (1R,5S,6S,8R,2'S,4'S)-2-(2-(4-Carboxy-2-hydroxyphenylcarbamoyl)pyrrolidin-4-ylthio)-6-(1-hydroxyethyl)-1-methylcarbapenem-3-carboxylic acid], the MIC was found to be 0.01 µg/mL (≈ 0.0203 µM) in assay [1]; 0.25 µg/mL (≈ 0.509 µM) with B. fragilis AMP-S; 0.02 µg/mL (≈ 0.0407 µM) with D Morganii DR 062 (setting [3]); 0.13 µg/mL (≈ 0.264 µM) against S. aureus Oxford; 0.5 µg/mL (≈ 1.02 µM) against B. fragilis AMP-R; 0.02 µg/mL with P. morganii I + 001 (setting [4]). Besides, the MIC worked out at 0.25 µg/mL (≈ 0.509 µM) in assay [2] and 0.01 µg/mL (≈ 0.0203 µM) in the assay with E. coli DCO.

In the case of `C[C@@H](O)[C@H]1C(=O)N2C(C(=O)O)=C(S[C@@H]3CN[C@H](C(=O)Nc4cc(C(=O)O)ccc4O)C3)[C@H](C)[C@H]12` [Example 2, (1R,5S,6S,8R,2'S,4'S)-2-(2-(5-Carboxy-2-hydroxyphenylcarbamoyl)pyrrolidin-4-ylthio)-6-(1-hydroxyethyl)-1-methylcarbapenem-3-carboxylic acid], the MIC was 0.01 µg/mL (≈ 0.0203 µM) in assay [1]; 0.25 µg/mL (≈ 0.509 µM) in the assay on B. fragilis AMP-S; 0.06 µg/mL (≈ 0.122 µM) with D Morganii DR 062 (setting [3]); 0.13 µg/mL (≈ 0.264 µM) in the assay on S. aureus Oxford; 0.06 µg/mL in the assay on P. morganii I + 001 (setting [4]); 1 µg/mL (≈ 2.03 µM) in assay [2]. The compound also displayed an MIC with E. coli DCO of 0.03 µg/mL (≈ 0.061 µM).

With `C[C@@H](O)[C@H]1C(=O)N2C(C(=O)O)=C(S[C@@H]3CN[C@H](C(=O)Nc4cccc(C(=O)O)c4C(=O)O)C3)[C@H](C)[C@H]12` [Example 4, (1R,5S,6S,8R,2'S,4'S)-2-(2-(2,3-Dicarboxyphenylcarbamoyl)pyrrolidin-4-ylthio)-6-(1-hydroxyethyl)-1-methylcarbapenem-3-carboxylic acid], the MIC in assay [1] came to 0.01 µg/mL (≈ 0.0192 µM); with B. fragilis AMP-S it was 0.13 µg/mL (≈ 0.25 µM); with D Morganii DR 062, 0.03 µg/mL (≈ 0.0577 µM); in the assay on S. aureus Oxford it was 0.25 µg/mL (≈ 0.481 µM); with B. fragilis AMP-R, 0.5 µg/mL (≈ 0.962 µM); in the assay on P. morganii I + 001 it was 0.03 µg/mL (≈ 0.0577 µM). Also, the MIC in assay [2] was found to be 1 µg/mL (≈ 1.92 µM); with E. coli DCO it was 0.02 µg/mL (≈ 0.0385 µM).

On to `C[C@@H](O)[C@H]1C(=O)N2C(C(=O)O)=C(S[C@@H]3CN[C@H](C(=O)Nc4ccccc4C(=O)O)C3)[C@H](C)[C@H]12` [Example 5, (1R,5S,6S,8R,2'S,4'S)-2-(2-(2-Carboxyphenylcarbamoyl)pyrrolidin-4-ylthio)-6-(1-hydroxyethyl)-1-methylcarbapenem-3-carboxylic acid], for which the MIC in assay [1] was 0.06 µg/mL (≈ 0.126 µM); in the assay on B. fragilis AMP-S it was 0.25 µg/mL (≈ 0.526 µM); against D Morganii DR 062 it was 0.03 µg/mL (≈ 0.0631 µM); in the assay with S. aureus Oxford it was 0.06 µg/mL (≈ 0.126 µM); against B. fragilis AMP-R, 0.25 µg/mL (≈ 0.526 µM); in the assay on P. morganii I + 001 it was 0.03 µg/mL (≈ 0.0631 µM). The values for the MIC (in assay [2]; against E. coli DCO) were 1 µg/mL (≈ 2.1 µM) and 0.03 µg/mL (≈ 0.0631 µM), respectively.

In the case of `C[C@@H](O)[C@H]1C(=O)N2C(C(=O)O)=C(S[C@@H]3CN[C@H](C(=O)Nc4ccc(C(=O)O)cc4C(=O)O)C3)[C@H](C)[C@H]12` [Example 13, (1R,5S,6S,8R,2'S,4'S)-2-(2-(2,4-Dicarboxyphenylcarbamoyl)pyrrolidin-4-ylthio)-6-(1-hydroxyethyl)-1-methylcarbapenem-3-carboxylic acid], the MIC amounted to 0.03 µg/mL (≈ 0.0577 µM) in assay [1]; 0.13 µg/mL (≈ 0.25 µM) with B. fragilis AMP-S; 0.02 µg/mL (≈ 0.0385 µM) in the assay with D Morganii DR 062 (setting [3]); 0.25 µg/mL (≈ 0.481 µM) with S. aureus Oxford; 0.5 µg/mL (≈ 0.962 µM) in the assay on B. fragilis AMP-R; 0.01 µg/mL in the assay with P. morganii I + 001 (setting [4]). The MIC in assay [2] was 2 µg/mL (≈ 3.85 µM); in the assay on E. coli DCO, 0.02 µg/mL (≈ 0.0385 µM).

Consider `COc1ccc(NC(=O)[C@@H]2C[C@H](SC3=C(C(=O)O)N4C(=O)[C@H]([C@@H](C)O)[C@H]4[C@H]3C)CN2)c(C(=O)O)c1` [Example 31, (1R,5S,6S,8R,2'S,4'S)-2-(2-(2-Carboxy-4-methoxyphenylcarbamoylpyrrolidin-4-ylthiol)-6-(1-hydroxyethyl)-1-methylcarbapenem-3-carboxylic acid, dipotassium salt], for which the MIC in assay [1] is 0.03 µg/mL; in the assay on B. fragilis AMP-S, 0.25 µg/mL; in the assay with D Morganii DR 062 (setting [3]), 0.06 µg/mL; in the assay on S. aureus Oxford, 0.13 µg/mL; with B. fragilis AMP-R, 0.25 µg/mL; in the assay on P. morganii I + 001, 0.03 µg/mL. Also, the results for the MIC (in assay [2]; in the assay on E. coli DCO) were 1 µg/mL and 0.02 µg/mL, respectively.

For the compound `CO/N=C(\C(=O)N[C@@H]1C(=O)N2C(C(=O)O)=C(CSc3nc(=O)c(=O)[nH]n3C)CS[C@H]12)c1csc(N)n1` [ceftriaxone, reference compound], the MIC in assay [1] was 0.06 µg/mL (≈ 0.108 µM); in the assay with B. fragilis AMP-S it was 2 µg/mL (≈ 3.61 µM); with D Morganii DR 062 (setting [3]) it was 1 µg/mL (≈ 1.8 µM); against S. aureus Oxford it was 2 µg/mL (≈ 3.61 µM); against B. fragilis AMP-R, over 128 µg/mL; in the assay with P. morganii I + 001 (setting [4]) it was 0.01 µg/mL. Also, the values for the MIC (in assay [2]; with E. coli DCO) were 32 µg/mL (≈ 57.7 µM) and 0.03 µg/mL (≈ 0.0541 µM), respectively.
